Each structure is given as a SMILES string.

Here are results for three compounds from patent US10925858B2, “S-nitrosoglutathione (GSNO) and GSNO reductase inhibitors for use in therapy” (MUSC FOUNDATION FOR RESEARCH DEVELOPMENT, priority 2017, dated 2021).

One test deals with mononuclear cells. The experiment in a line: H&E staining, spinal cord infiltration of mononuclear cells in EAE mice. The format is in vivo, C57BL/6 mice. The note with it: 1 mg/kg/day. The protocol: Female C57BL/6 mice of 8-12 weeks of age, purchased from Jackson Laboratory, were provided with food and water ad libitum and were kept in pathogen free animal care facility of Medical University of South Carolina (MUSC) throughout the study. All procedures were conducted in accordance with accepted standards of humane care as approved by the Institutional Animal Care and Use Committee (Approved number: AR #1644). EAE was induced as described previously (Nath et al., 2009). Briefly, mice were immunized subcutaneously in the flank regions with MOG35-55 peptide (MOG; 200 μg; Peptide International) emulsified (1:1) in 100 ul complete Freund's adjuvant (CFA) on day 0 and day 7. Additionally, 300 ng of Pertussis toxin (Sigma-Aldrich, St. Louis, Mo.) was given on day 0 and day 2 by i.p. injection. […] Clinical signs of EAE were scored by examiners blinded to experimental treatments using the following scale: 0=no clinical signs of disease; 1=piloerection and sluggish; 2=limp tail (ataxia); 2.5=ataxia with partial hind limb paralysis; 3=full paralysis of hind limb; 3.5=full paralysis of hind limb with paralysis of one fore limb; 4=full paralysis of two limbs; 4.5=moribund stage; 5=death. […]
Tissue samples were embedded in paraffin block and sectioned transversely (5 μm-thick). […] For the quantitation of infiltrates, the digital images were analyzed by ImageJ (NIH, Bethesda, Md.). […]

A short description of test [1]: Edema (brain water content) in CCI rat model of TBI. It counts as in vivo, Sprague Dawley rats. The note with it: 24 hr after TBI; GSNO 0.05 mg/kg i.v. or FeTPPS 3 mg/kg i.v. The text has this:
All animals used in this study received humane care in compliance with the Medical University of South Carolina's (MUSC) guidance and the National Research Council's criteria for humane care. Animal procedures were approved by the institutional animal care and use committee of MUSC (AR #2703). For generation of CCI model of TBI, young adult male (˜3-4 months old) Sprague Dawley rats weighing between 260-300 g were randomly divided into four groups: 1) TBI animals treated with vehicle (TBI; n=13), 2) TBI with GSNO (0.05 mg/kg body weight/i.v.) treatment (TBI+GSNO; n=13), 3) TBI with FeTPPS (3 mg/kg body weight, i.v.) treatment (TBI+FeTPPS; n=13), 4) sham-operated treated with vehicle (Sham; n=13). The group size was determined by power analysis based on our previous data (Khan et al., 2016b; Khan et al., 2009). Ketamine (90 mg/kg body weight) and xylazine (10 mg/kg body weight) as surgical anesthesia were administered intraperitoneally. Analgesic buprenorphine was administered pre-emptively to alleviate pain following surgery. […]
At 24 h following CCI, animals were euthanized to determine brain water content (edema) as described earlier (Hoda et al., 2009; Khan et al., 2009). […] Each hemisphere was dried at 60° C. for 72 hours, and the dry weight was determined. Water content was calculated in ipsilateral hemisphere as: water content (%)=(wet weight−dry weight)/wet weight×100.

The next test concerns RhoA. Description: RhoA activity assay in thrombin treated hBMVECs. The conditions noted are these: thrombin 0.1 unit/ml 5 min; L-NIO or FeTPPS 10 μM pretreated 30 min; GSNO or SIN-1 various concentrations pretreated 2 hr. The format is cell-based, human. The protocol:
Cell culture: Primary human brain microvascular endothelial cells (hBMVECs) were purchased from Angio-Proteomie (Cat #: cAP-0002, Atlanta, Ga.). The cells were cultured in cell culture flasks or plates precoated with Quick Coating Solution (Angio-Proteomie; Cat #: cAP-01) and maintained in Endothelial Growth Medium (Angio-Proteomie; Cat #: cAP-02) at 37° C. under 5% CO2/95% air. When the cells were almost confluent, the medium was replaced with endothelial basal medium (Angio-Proteomie; Cat #: cAP-03) containing 0.5% fetal bovine serum (FBS; Life Technologies, Grand Island, N.Y.) about 8-12 hours before the experiment. No institutional approval was required for this study. The study was not pre-registered.
RhoA activity in hBMVECs was analyzed by RhoA Activation Assay Kit (Abeam Cat #: ab211164, Cambridge, Mass.). Briefly, following drug treatments, the cells were lysed with 1× Assay buffer provided in the kit. Lysates were centrifuged (14,000×g for 10 sec), and supernatants were incubated with agarose beads coupled to GST-Rhotekin-Rho binding domain (RBD) for 2 h at 4° C. Beads were then washed with 1× Assay buffer and GTP-bound RhoA was eluted with 2×SDS-PAGE sample buffer. Amounts of active (GTP-bound) RhoA were determined by Western blot analysis using antibody specific to RhoA (Abeam).

As to `Cc1cc(C(N)=O)ccc1-n1c(CCC(=O)O)ccc1-c1ccc(-n2ccnc2)cc1` [N6022, reference compound], in the test with mononuclear cells, the “spinal cord infiltration of mononuclear cells” value is on record as “significantly reduced”.

For the compound `N[C@@H](CCC(=O)N[C@@H](CSN=O)C(=O)NCC(=O)O)C(=O)O` [GSNO, S-nitrosoglutathione], the “spinal cord infiltration of mononuclear cells” value in the test on mononuclear cells is “reduced”. For the same compound, the “TBI-induced increase in brain water content” value in test [1] is recorded as “reduced”. Moreover, the “thrombin-induced RhoA activation” value with RhoA is “inhibited”.

Turning to `Cl.O=S(=O)([O-])c1ccc(-c2c3nc(c(-c4ccc(S(=O)(=O)O)cc4)c4ccc([nH]4)c(-c4ccc(S(=O)(=O)O)cc4)c4nc(c(-c5ccc(S(=O)(=O)O)cc5)c5ccc2[nH]5)C=C4)C=C3)cc1.[Fe]` [FeTPPS, 5,10,15,20-Tetrakis(4-sulfonatophenyl)porphyrinato Iron (III), Cl, reference compound], the “TBI-induced increase in brain water content” value in test [1] is reported as “reduced”. Moreover, the “thrombin-induced RhoA activation” value in the test with RhoA is on record as “decreased”.
